According to ChEMBL document CHEMBL1201862, “PubChem BioAssay data set” (2004):
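48-hour exposure; five concentrations; linearly interpolated endpoints. Abbreviation: GI50, concentration required for 50% inhibition of growth.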 Activity calls are given as the source filed them. Rule as the data show it: active = GI50 up to about 1.1 µM and inactive = higher.

Assays:
Test in all cases: NCI tumour cell line growth inhibition, 48 h
CAKI-1 = test system: CAKI-1
UACC-62 = test system: UACC-62
786-0 = test system: 786-0
HCT-15 = test system: HCT-15
OVCAR-5 = test system: OVCAR-5
OVCAR-4 = test system: OVCAR-4
HOP-92 = test system: HOP-92
NCI-H522 = test system: NCI-H522
RPMI-8226 = test system: RPMI-8226
NCI-H460 = test system: NCI-H460
SN12C = test system: SN12C
HOP-62 = test system: HOP-62
KM12 = test system: KM12
SK-MEL-2 = test system: SK-MEL-2
EKVX = test system: EKVX
MDA-N = test system: MDA-N
HCC 2998 = test system: HCC 2998
OVCAR-3 = test system: OVCAR-3
SK-MEL-28 = test system: SK-MEL-28
TK-10 = test system: TK-10
M14 = test system: M14
T47D = test system: T47D
SF-295 = test system: SF-295
SF-268 = test system: SF-268
Malme-3M = test system: Malme-3M
SNB-75 = test system: SNB-75
SK-MEL-5 = test system: SK-MEL-5
NCI-H23 = test system: NCI-H23
Hs-578T = test system: Hs-578T
MCF7 = test system: MCF7
PC-3 = test system: PC-3
ACHN = test system: ACHN
SNB-19 = test system: SNB-19
COLO 205 = test system: COLO 205
U-251 = test system: U-251
MDA-MB-231 = test system: MDA-MB-231
LOX IMVI = test system: LOX IMVI
A498 = test system: A498
CCRF-CEM = test system: CCRF-CEM
UACC-257 = test system: UACC-257
HT-29 = test system: HT-29
K562 = test system: K562
NCI/ADR-RES = test system: NCI/ADR-RES
DU-145 = test system: DU-145
OVCAR-8 = test system: OVCAR-8
MOLT-4 = test system: MOLT-4
BT-549 = test system: BT-549
SF-539 = test system: SF-539
SK-OV-3 = test system: SK-OV-3
MDA-MB-435 = test system: MDA-MB-435
SW-620 = test system: SW-620
A549 = test system: A549
HCT-116 = test system: HCT-116
RXF 393 = test system: RXF 393
NCI-H226 = test system: NCI-H226
UO-31 = test system: UO-31
HL-60 = test system: HL-60
IGROV-1 = test system: IGROV-1
SR = test system: SR

Measured: GI50

COc1ccc([C@H]2[C@H]3COC(=O)[C@H]3C(C#N)=C3Sc4ccccc4N32)cc1
25.8 µM: HCT-15
inactive: CAKI-1 21.7 µM | UACC-62 28.8 µM | 786-0 36.7 µM | OVCAR-5 80.5 µM | OVCAR-4 33.7 µM | HOP-92 85.1 µM | NCI-H522 18.1 µM | RPMI-8226 20.7 µM | NCI-H460 25.4 µM | SN12C 15.1 µM | HOP-62 39 µM | KM12 27.2 µM | SK-MEL-2 19.1 µM | EKVX 37.4 µM | MDA-N 28.8 µM | HCC 2998 44.3 µM | OVCAR-3 16.4 µM | SK-MEL-28 53.5 µM | TK-10 40.6 µM | M14 56.5 µM | T47D 8.89 µM | SF-295 16.3 µM | SF-268 71.6 µM | Malme-3M 43 µM | SNB-75 9.64 µM | SK-MEL-5 21.1 µM | NCI-H23 22.8 µM | Hs-578T 31.1 µM | MCF7 27.3 µM | PC-3 17.3 µM | ACHN 37.6 µM | SNB-19 48.3 µM | COLO 205 15.3 µM | U-251 24.6 µM | MDA-MB-231 28.3 µM | LOX IMVI 20.2 µM | A498 43.7 µM | CCRF-CEM 11.9 µM | UACC-257 40.6 µM | HT-29 12.4 µM | K562 41.4 µM | NCI/ADR-RES 15.5 µM | DU-145 19.2 µM | OVCAR-8 51.3 µM | MOLT-4 13.4 µM | BT-549 5.37 µM | SF-539 22.3 µM | SK-OV-3 39.9 µM | MDA-MB-435 44.2 µM | SW-620 48.6 µM | A549 30.5 µM | HCT-116 21.7 µM | RXF 393 3.11 µM | NCI-H226 33.1 µM | UO-31 23.4 µM

CC(C)(C)CN1[C@@H]2CCCC[C@H]2N(CC(C)(C)C)P1(=O)Cc1ccccc1
inactive: CAKI-1 12.7 µM | UACC-62 10.7 µM | 786-0 15.6 µM | OVCAR-5 12.7 µM | OVCAR-4 10.4 µM | HL-60 11.3 µM | NCI-H522 7.48 µM | NCI-H460 13.2 µM | SN12C 16.3 µM | HOP-62 16.4 µM | KM12 13.1 µM | SK-MEL-2 16.1 µM | EKVX 14.3 µM | IGROV-1 11 µM | MDA-N 14.9 µM | HCC 2998 9.14 µM | OVCAR-3 10.7 µM | SK-MEL-28 16.9 µM | TK-10 12.5 µM | M14 13.5 µM | T47D 10.1 µM | SF-295 10.4 µM | SF-268 15 µM | Malme-3M 13.5 µM | SNB-75 11.4 µM | SK-MEL-5 12.2 µM | NCI-H23 13 µM | Hs-578T 15.7 µM | MCF7 12.8 µM | PC-3 6.5 µM | ACHN 15.2 µM | SNB-19 14.6 µM | COLO 205 10.4 µM | U-251 13.4 µM | MDA-MB-231 12.2 µM | LOX IMVI 15.7 µM | CCRF-CEM 11 µM | UACC-257 12.8 µM | HT-29 10.1 µM | K562 13.6 µM | NCI/ADR-RES 12.1 µM | DU-145 15.6 µM | OVCAR-8 14.4 µM | MOLT-4 11.5 µM | BT-549 17.1 µM | SF-539 17.3 µM | SK-OV-3 15.1 µM | MDA-MB-435 16.2 µM | SW-620 14 µM | A549 11.6 µM | SR 11.8 µM | HCT-116 10.2 µM | RXF 393 10.8 µM | NCI-H226 12.9 µM | UO-31 13.3 µM
12 µM: HCT-15

CCOC(=O)c1nc2ccccc2nc1Oc1ccc(C#N)cc1
> 100 µM: HCT-15
inactive: UACC-62 > 100 µM | 786-0 > 100 µM | OVCAR-5 > 100 µM | OVCAR-4 > 100 µM | HL-60 > 100 µM | HOP-92 96.6 µM | RPMI-8226 > 100 µM | NCI-H460 > 100 µM | SN12C > 100 µM | HOP-62 > 100 µM | KM12 > 100 µM | SK-MEL-2 > 100 µM | EKVX > 100 µM | IGROV-1 > 100 µM | MDA-N > 100 µM | OVCAR-3 > 100 µM | SK-MEL-28 > 100 µM | TK-10 > 100 µM | M14 > 100 µM | T47D > 100 µM | SF-295 > 100 µM | SF-268 > 100 µM | Malme-3M > 100 µM | SK-MEL-5 > 100 µM | Hs-578T > 100 µM | MCF7 > 100 µM | PC-3 > 100 µM | ACHN > 100 µM | SNB-19 > 100 µM | COLO 205 > 100 µM | U-251 > 100 µM | MDA-MB-231 > 10 µM | LOX IMVI > 100 µM | A498 > 100 µM | CCRF-CEM > 100 µM | UACC-257 > 100 µM | HT-29 > 100 µM | K562 > 100 µM | NCI/ADR-RES > 100 µM | DU-145 > 100 µM | OVCAR-8 > 100 µM | MOLT-4 > 100 µM | BT-549 > 100 µM | SF-539 > 100 µM | SK-OV-3 > 100 µM | MDA-MB-435 > 100 µM | SW-620 > 100 µM | A549 > 100 µM | HCT-116 > 100 µM | RXF 393 > 100 µM | NCI-H226 > 100 µM | UO-31 > 100 µM

CS(=O)(=O)C[S+]([O-])C[S+]([O-])C[S+]([O-])CC(NC(=O)CCC(N)C(=O)O)C(=O)O (stereo not given)
> 100 µM: HCT-15
inactive: CAKI-1 > 100 µM | UACC-62 > 100 µM | 786-0 > 100 µM | OVCAR-5 > 100 µM | OVCAR-4 > 100 µM | HL-60 32.8 µM | HOP-92 > 100 µM | NCI-H522 > 100 µM | RPMI-8226 > 100 µM | NCI-H460 > 100 µM | SN12C > 100 µM | HOP-62 > 100 µM | KM12 > 100 µM | SK-MEL-2 > 100 µM | EKVX > 100 µM | IGROV-1 > 100 µM | MDA-N > 100 µM | HCC 2998 > 100 µM | OVCAR-3 > 100 µM | SK-MEL-28 > 100 µM | TK-10 > 100 µM | M14 > 100 µM | T47D > 100 µM | SF-295 > 100 µM | SF-268 > 100 µM | SNB-75 > 100 µM | SK-MEL-5 > 100 µM | NCI-H23 > 100 µM | Hs-578T 51.8 µM | MCF7 > 100 µM | PC-3 > 100 µM | ACHN > 100 µM | SNB-19 > 100 µM | COLO 205 > 100 µM | U-251 > 100 µM | MDA-MB-231 > 100 µM | LOX IMVI > 100 µM | CCRF-CEM > 100 µM | UACC-257 > 100 µM | HT-29 > 100 µM | K562 > 100 µM | NCI/ADR-RES > 100 µM | DU-145 > 100 µM | OVCAR-8 > 100 µM | MOLT-4 > 100 µM | BT-549 > 100 µM | SF-539 > 100 µM | MDA-MB-435 > 100 µM | SW-620 > 100 µM | A549 > 100 µM | SR 16.3 µM | HCT-116 > 100 µM | UO-31 > 100 µM

CC(=N/NC(=S)N(C)C)/C(=N\NC(=S)N(C)C)c1ccccc1
active: NCI-H460 1 µM | HCC 2998 0.989 µM
inactive: CAKI-1 2.53 µM | UACC-62 1.94 µM | 786-0 2 µM | OVCAR-5 2.21 µM | OVCAR-4 2.02 µM | HOP-92 1.95 µM | NCI-H522 1.78 µM | RPMI-8226 2.74 µM | SN12C 1.47 µM | HOP-62 2.24 µM | KM12 2.15 µM | SK-MEL-2 1.99 µM | EKVX 1.85 µM | IGROV-1 1.66 µM | MDA-N 2.11 µM | OVCAR-3 1.76 µM | SK-MEL-28 1.9 µM | TK-10 1.59 µM | M14 1.97 µM | T47D 1.65 µM | SF-295 2.08 µM | SF-268 2.07 µM | Malme-3M 1.75 µM | SNB-75 2.12 µM | SK-MEL-5 1.64 µM | NCI-H23 2.32 µM | Hs-578T 3.11 µM | MCF7 2.84 µM | PC-3 2 µM | ACHN 1.71 µM | SNB-19 2.56 µM | COLO 205 1.79 µM | U-251 2.8 µM | MDA-MB-231 3.1 µM | LOX IMVI 3.08 µM | A498 1.59 µM | UACC-257 1.98 µM | HT-29 3.38 µM | K562 5.15 µM | NCI/ADR-RES 2.47 µM | DU-145 5.46 µM | OVCAR-8 2.02 µM | MOLT-4 7.16 µM | BT-549 2.17 µM | SF-539 3.66 µM | SK-OV-3 1.98 µM | MDA-MB-435 1.87 µM | SW-620 1.93 µM | A549 2.76 µM | HCT-116 2.93 µM | RXF 393 1.46 µM | NCI-H226 1.71 µM | UO-31 2.11 µM
1.21 µM: HCT-15
